Measured values as given in article PMC7503713, “GANT61 Reduces Hedgehog Molecule (GLI1) Expression and Promotes Apoptosis in Metastatic Oral Squamous Cell Carcinoma Cells” (International Journal of Molecular Sciences, 2020).
“And” between values parts separate entries of the source, which are not always exact repeats. Equal entries are not always repeated.

Key:
Type in all cases: cell-based, human
CAL27 = test: alamarBlue cytotoxicity assay, CAL27
Protocol: (§1) To assess the cytotoxicity of the GLI inhibitor GANT61 (Sigma-Aldrich, St. Louis, MO, USA) in tumor and non-tumor cell lines, an alamarBlue assay (Sigma-Aldrich Chemical Co, St. Louis, MO, USA) was performed after 72 h of exposure to the inhibitor, as described by Ahmed et al., 1994 [46]. Cells were distributed on 96-well plates at a density of 7 × 10^4 cells/mL for adhered cells, and 3 × 10^5 cells/mL for cells in suspension. All tested compounds were dissolved in DMSO, added to wells containing 100 µL of cells in complete medium, and then incubated for 72 h. Eight concentrations of GANT61 (0.19 to 50 µg/mL), Doxorubicin (Laboratory IMA S.A.I.C., Buenos Aires, Argentina), and 5-Fluorouracil (5-FU, Sigma-Aldrich, St. Louis, MO, USA), both used as positive controls at concentrations ranging from 0.03 to 5 µg/mL, were added to respective wells. Cells treated with the vehicle (0.5% DMSO) used to dilute the tested compounds were used as negative controls. Before the end of the incubation period (4 h for cell lines and 24 h for PBMCs), 20 µL of alamarBlue stock solution (resazurin, Sigma-Aldrich, St. Louis, MO, USA) was added to each well. Absorbance was measured at 570 nm (reduced) and 595 nm (oxidized) wavelengths, using a Spectramax 190 plate reader (Molecular Devices; Sunnyvale, CA, USA).
(§2) Statistical analyses were performed, using GraphPad Prism v. 6.03 (GraphPad Software, Inc., San Diego, USA). Data were analyzed according to distribution along the normal Gaussian curve. IC50 values were obtained through non-linear regression, using results from three independent experiments carried out in duplicate. Differences between groups resulting from in vitro assays were evaluated by ANOVA (analysis of variance) testing, followed by the Student–Newman–Keuls test. This study considered a level of significance, corresponding to alpha (α) or “p” value, when results were less than or equal to 5%.

HSC3 = test: alamarBlue cytotoxicity assay, HSC3; conditions: 72 h of incubation
Protocol: For cytotoxicity assessments, this study primarily focused on the highly metastatic HSC3 OSCC cell line (JCRB Cell Bank, Osaka, Japan) and employed other histological tumor cell types and non-tumor cells (Supplementary Table S1). HSC3 cells were placed in flasks ([…], 250 mL volume) containing DMEM medium (Gibco, Lif Technologies, Gaithesburg, MD, USA) supplemented with 10% fetal bovine serum (FBS, Gibco, Life Technologies, Gaithesburg, MD, USA) 1% penicillin, 1% streptomycin (Gibco, Life Technologies, Gaithesburg, MD, USA), and 0.8% hydrocortisone (Sigma-Aldrich, St. Louis, MO, USA). Cells were cultured and kept in incubators, under an atmosphere of 5% CO2 at 37 °C. Trypsinization was used to dissociate cells when cell growth reached the necessary confluence, i.e., 70 to 80% of the total culture flask volume. Cell cultures were tested periodically for mycoplasma contamination and evaluated by using a luminometer, according to the MycoAlert^TM PLUS protocol (Lonza, Walkersville Inc., Walkersville, MD, USA, 2012).
as §1
(§3) Statistical analyses were performed, using GraphPad Prism v. 6.03 (GraphPad Software, Inc., San Diego, USA). Data were analyzed according to distribution along the normal Gaussian curve. […] Differences between groups resulting from in vitro assays were evaluated by ANOVA (analysis of variance) testing, followed by the Student–Newman–Keuls test. […]

SCC9 = test: alamarBlue cytotoxicity assay, SCC9
Protocol: as §1, §2

PBMC = test: alamarBlue cytotoxicity assay, PBMC; conditions: 72 h of incubation
Protocol: Human peripheral blood mononuclear cells (PBMC) lymphocytes and monocytes) were obtained from the peripheral blood of healthy, non-smoking volunteers aged 25–35 years. None of the volunteers had used any type of drug or medication for at least 15 days prior to collection. Blood collection (5 mL) was performed in heparinized vials by trained professionals at the Laboratory of Tissue Engineering and Immunopharmacology (LETI, IGM-FIOCRUZ, Salvador, Brazil), using sterile disposable syringes. PBMCs were isolated by a standard protocol described by Dias et al. (2018). The institutional review board of the Gonçalo Moniz Institution, Oswaldo Cruz Foundation (IGM-FIOCRUZ), in Salvador, Bahia, Brazil, approved all experimental protocols (No.031019/2013). All participants provided written informed consent prior to participation in the study.
To assess the cytotoxicity of the GLI inhibitor GANT61 (Sigma-Aldrich, St. Louis, MO, USA) in tumor and non-tumor cell lines, an alamarBlue assay (Sigma-Aldrich Chemical Co, St. Louis, MO, USA) was performed after 72 h of exposure to the inhibitor, as described by Ahmed et al., 1994 [46]. Cells were distributed on 96-well plates at a density of 7 × 10^4 cells/mL for adhered cells, and 3 × 10^5 cells/mL for cells in suspension. All tested compounds were dissolved in DMSO, added to wells containing 100 µL of cells in complete medium, and then incubated for 72 h. […] Absorbance was measured at 570 nm (reduced) and 595 nm (oxidized) wavelengths, using a Spectramax 190 plate reader (Molecular Devices; Sunnyvale, CA, USA).
as §3, with “6.03 (GraphPad Software, Inc., San Diego, USA).” left out

HSC3 cells [1] = test: Cell cycle and internucleosomal DNA fragmentation by flow cytometry (PI); conditions: for cells in S and G2/M phases: ≥48 h
Protocol: (§4) To study the effects of GANT61 on HSC3 cell viability, cycle, and death patterns, 4 mL of cellular solution (containing 0.7 × 10^5 cells/mL) was placed on 6-well plates and incubated overnight, to allow adhesion. […] For cell cycle analysis, the effects of GANT61 on HSC3 cells were also evaluated after 12 h of treatment. Negative controls were treated with the vehicle (0.2% DMSO) used to dilute the GLI inhibitor, and 5-fluorouracil (5-FU, 17 μM) was used as a positive control. All experiments were carried out in duplicate and repeated no less than three times. Cell viability was determined by the trypan blue exclusion method, in which 90 μL aliquots were collected at several incubation periods, stained with 10 μL trypan blue, and counted in a Neubauer chamber, under optical microscopy, at 20× magnification (Olympus CX41 Olympus, Tokyo, Japan).
Cellular nuclear DNA content was evaluated by flow cytometry, to differentiate among cell cycle phases, using PI (propidium iodide) as a fluorogenic agent. Following incubation with the GLI inhibitor, the supernatant was collected, and wells were washed with saline. Next, cells were trypsinized, then centrifuged (295× g for 5 min) together with the supernatant. Permeabilization was carried out by using a solution (300 µL) containing 0.1% triton X-100, 0.1% sodium citrate and 2 μg/mL of PI and 100 µg/mL RNase in distilled water, placed under dark conditions, at room temperature, for 30 min. Cells were then acquired (10,000 events/sample) and analyzed on a BD LSRFortessa flow cytometer, using BD FACSDiva software version 6.2 (Becton Dickinson Biosciences, San José, CA, USA). Proportions of fragmented internucleosomal DNA and cell cycle phases were determined by using Flowjo software v. 10 (Flowjo LCC, Ashland, OR, USA). Cells in sub-G1 phase were considered to present internucleosomal DNA fragmentation. Cellular debris was omitted from our analysis.

HSC3 cells [2] = test: Phosphatidylserine externalization by flow cytometry (annexin V-FITC/PI)
Protocol: as §4
Following treatment with GANT61, cells were labeled with annexin V-FITC and PI to determine cell viability (classified as viable, early apoptosis, late apoptosis, and necrosis), according to the manufacturer’s protocol (Becton Dickinson Biosciences, San José, CA, USA). Cells were acquired (10,000 events/sample) and analyzed on a BD LSRFortessa flow cytometer, using BD FACSDiva software version 6.2 (Becton Dickinson Biosciences, San José, CA, USA). The proportion of cells undergoing apoptosis was determined by the percentage of annexin labeling as quantified by the FlowJo program, version 10 (Flowjo LCC, Ashland, OR, USA). Cellular debris was omitted from our analyses.

| Structure (SMILES) | IC50 (CAL27; Homo sapiens, CAL-27, 72 h of incubation) [µM] | IC50 (HSC3) | IC50 (HSC3; Homo sapiens, HSC-3, 72 h) [µM] | IC50 (SCC9; Homo sapiens, SCC-9, 72 h of incubation) [µM] | IC50 (PBMC; Homo sapiens) [µM] | cells in S and G2/M phases (HSC3 cells [1]; 5-FU positive control) | cell apoptosis (HSC3 cells [2]; 5-FU positive control, only after 72 h) | IC50 (CAL27; 72 h of incubation) [µM] | IC50 (SCC9; 72 h of incubation) [µM] | IC50 (PBMC) [µM] | cells in the sub-G0/G1 phase (HSC3 cells [1]; 36 µM, 24 and 48 h, vs DMSO 0.2%) | percentage of HSC3 cells in the sub-G0/G1 phase (HSC3 cells [1]; 36 µM, 12 h) | number of cells in the G0-G1 phase (HSC3 cells [1]; 36 µM, from 12 h forward) | cells in S and G2/M phases (HSC3 cells [1]; 18 and 36 µM) | cell apoptosis (HSC3 cells [2]; 18 µM, 48 and 72 h) | exposure of phosphatidylserine on HSC3 cell surfaces (HSC3 cells [2]; 36 µM, all times evaluated, vs DMSO (0.2%)) |
| --- | --- | --- | --- | --- | --- | --- | --- | --- | --- | --- | --- | --- | --- | --- | --- | --- |
| O=c1[nH]cc(F)c(=O)[nH]1 [5-FU, 5-fluorouracil] | 30.8 | 16.8 µM | 17 | 143 | > 192 | significantly lower numbers of cells | significantly increased cell apoptosis |  |  |  |  |  |  |  |  |  |
| CN(C)c1ccccc1CN1CCCN(Cc2ccccc2N(C)C)C1c1ccncc1 [GANT61] |  | 36 µM and 35.9 µM |  |  |  |  |  | > 116 | 83.5 | 87.5 | significantly higher numbers of cells | significant increase | significant decrease | significantly lower numbers of cells | significantly increased cell apoptosis | significantly higher exposure of phosphatidylserine |
